Experiments:
[1] = system: sorted sca1+ckit+ fetal-liver HSPCs; assay: Defined T cell differentiation assay on adsorbed ligand, flow cytometry; assay type: cell-based, mouse
Description: FIG. 2a: Schematic for 2D coated DL4 assay, in which sorted E13.5 sca1+ckit+ fetal-liver HSPCs are seeded on coated DL4 ligand in standard 96-well flat bottom plates at 1000 cells/well density in 200 μl test media containing cytokines 25 ng/mL SCF, 5 ng/mL Flt3L and 1 ng/mL IL7; cells are re-fed on day 4 with fresh media containing cytokines; on day 7, cells are assayed for surface marker expression using flow cytometry.
Commercially available DL4-Fc was purchased and used for experiments from Sino Biologicals (Cedarlane Labs, Burlington, Ontario, Canada) or manufactured in-house as described below. DL4-Fc was diluted in chilled phosphate-buffered saline (PBS) at 10 μg/mL or […] and 50 μL/well was coated in standard tissue-culture 96-well plates overnight at 4° C. Wells were washed once with PBS prior to seeding cells to remove any unbound ligand from the wells. For certain experiments, wells were also coated overnight with 50 μL/well PBS containing DL4-Fc and VCAM-1-Fc (R&D) or fibronectin (Sigma) at concentrations described herein.
Sorted sca1+ckit+ HSPCs were cultured at 1000 cells/well (corresponding to 3.1×10^3 cells/cm^2) in DL4-coated 96-well plates in serum-free Iscove modified Dulbecco medium (Gibco, Rockville, MD) with 20% bovine serum albumin, insulin, and transferrin serum substitute (BIT; Stemcell Technologies), 1% GlutaMAX™ (Gibco) and 1 μg/mL low-density lipoproteins (Calbiochem, La Jolla, CA) [IMDM+BIT]. For positive control cultures, OP9 serum medium was used, composed of αMEM medium (Gibco) and 16% FBS (Hyclone™, GE Health). Serum-free αMEM+BIT medium was prepared exactly as IMDM+BIT medium except using αMEM (Gibco) as the base medium. OP9 serum medium, αMEM+BIT or IMDM+BIT serum free medium was added at 200 μL/well supplemented with 25 ng/mL Stem Cell Factor (SCF; R&D Systems, Minneapolis, MN), 5 ng/mL FMS-like Tyrosine Kinase 3 Ligand (Flt3L; R&D Systems) and 1 ng/mL Interleukin-7 (IL-7; R&D Systems) with a 50% medium exchange step at day 4 containing 2-fold concentrated cytokines as described previously^9. Design of Experiment (DOE) in silico modeling was performed using Design-Expert® (v10) using response surface method to investigate the combinatorial desirability of different concentrations of SCF, Flt3L and IL-7 for maximizing DN3 T-cell yield and minimizing the volume of IMDM+BIT medium. After DOE optimization, IMDM+BIT serum-free medium was added at 50 μL/well supplemented with 50 ng/mL SCF (R&D Systems), 10 ng/mL Flt3L (R&D Systems) and 10 ng/mL IL-7 (R&D Systems) unless described otherwise in the text with no medium exchange for the length of the assay. For the candidate factor screening in serum-free IMDM+BIT medium, the following proteins or small molecules were used at the concentrations listed: JAK inhibitor I (50 nM; EMD Millipore), IL-11 (10, 50, and 100 ng/mL; R&D Systems), IL-6 (10, 50, and 100 ng/mL; R&D Systems), IL-6R (100 ng/mL; R&D Systems), Ccl25 (1.5 μg/mL; R&D Systems), IL-7 (50, 100, and 200 ng/mL; R&D Systems), SDF1α (Cxcl12; 200 ng/mL; R&D Systems), and Leukemia Inhibitory Factor (LIF; 0.1, 1, and 10 ng/mL; EMD Millipore).
Surface marker staining was performed with conjugated rat anti-mouse antibodies (BD Biosciences, San Jose, CA, Table 1). All samples were analyzed on a FACSCanto™ or FACS LSRFortessa™ flow cytometer (BD Biosciences). At day 7 of culture, cells were lifted off the plate with multiple HF rinses, stained at 1:400 dilution with antibodies against CD45, CD25, CD44, CD90, CD11 b and CD19 for 20 minutes on ice. Human progenitor T-cells were stained at 1:100 dilution with antibodies against CD34, CD7, CD5 and CD45RA. Integrin expression was analyzed using antibodies against α4, β1, and β7 integrin subunits on Sca-1+cKit+ mouse HSPCs and CD34+ human umbilical blood cells. […]

[2] = system: human umbilical cord blood-derived CD34+ HSPCs; assay: Human CD34+ HSPC progenitor T cell differentiation on coated plates; assay type: cell-based; conditions: serum-free IMDM+BIT
Description: For human HSPC culture, umbilical cord blood samples were collected from consenting donors according to ethically approved procedures at Mount Sinai Hospital. CD34+ cells were isolated from the red blood cell (RBC)-lysed cord blood fraction using the EasySep™ Human CD34 Positive Selection Kit (Stemcell Technologies) according to the manufacturer's instructions. Flow cytometry was performed after every enrichment to ensure CD34 frequencies were greater than 95%. CD34+ HSPCs were cultured for 14 days on DL4 and VCAM-1 coated 96-well plates at higher seeding densities of 12,500 HSPCs/cm^2 (corresponding to 4000 cells/well). One complete medium exchange was performed at day 7 of culture and cells were returned to the same DL4 and VCAM-1 coated plates. For certain experiments, DL4-Fc was coated alone or with RetroNectin® (Takara Shuzo) or fibronectin (Sigma Aldrich) as described in the text. CD34+ cells were cultured in serum-free Iscove modified Dulbecco medium (Gibco) with 20% bovine serum albumin, insulin, and transferrin serum substitute (BIT; Stemcell Technologies), 1% GlutaMAX™ (Gibco) and 1 μg/mL low-density lipoproteins (Calbiochem). The medium was added at 50 μL/well supplemented with 100 ng/mL SCF (R&D Systems, Minneapolis, MN), 100 ng/mL Flt3L (R&D Systems), 100 ng/mL Tpo (R&D Systems) and 100 ng/mL IL-7 (R&D Systems).
Surface marker staining was performed with conjugated rat anti-mouse antibodies (BD Biosciences, San Jose, CA, Table 1). All samples were analyzed on a FACSCanto™ or FACS LSRFortessa™ flow cytometer (BD Biosciences). At day 7 of culture, cells were lifted off the plate with multiple HF rinses, stained at 1:400 dilution with antibodies against CD45, CD25, CD44, CD90, CD11 b and CD19 for 20 minutes on ice. […] Integrin expression was analyzed using antibodies against α4, β1, and β7 integrin subunits on Sca-1+cKit+ mouse HSPCs and CD34+ human umbilical blood cells. […] Flow data was analyzed and batch processed using FlowJo® software and further analyzed in Python (version 2.7.10).

[3] = system: double negative (DN; CD4− CD8−) thymocytes; assay: DL4-Fc ligand binding to thymocytes
Description: Progenitor T cell development in the thymus is characterized by four sequential stages commonly referred to as DN1, DN2, DN3 and DP (DN=double negative and DP=double positive for CD4 and CD8 expression). An ideal defined progenitor T cell differentiation assay should aim to support the expansion of DN3 T cells that are exclusively committed to the T lymphoid lineage. […] Conventional in vitro T cell differentiation is carried out on an OP9 stromal feeder layer in serum-containing medium. The obvious first step in developing a defined assay for T cell differentiation is to establish conditions that eliminate the requirements for both serum and feeders. To replace the OP9 feeder layer, DL4-Fc protein was generated and the purity and functionality of the ligand to bind DN T cells and not DP T cells was verified, as these cell types differentially express the Notch-1 receptor (FIGS. 1a-c). […] Cultures were re-fed after four days and analyzed for progenitor T cell surface markers after seven days (FIG. 2a). Parallel cultures were carried out on untreated surfaces (negative control) and OP9-DL4 stromal co-culture (positive control based on which SCF, Flt3L and IL-7 supplementation concentrations were determined^9). […] The level of lineage skewing to non-T cell fates was also quantified in the absence of Notch ligand in order to assess the default cell differentiation supported by all medium types.

Substance: DL4: Notch ligand Delta-like-4 extracellular domain fused to the Fc region of human IgG1
- DN3 frequency at 20 μg/mL immobilized ligand ([1]; 20 μg/mL immobilized, no soluble ligand, day 7): generated DN3 cells at equivalent frequencies as in the 10 μg/mL coated DL4 control
- minimum concentration of adsorbed DL4 that supported DN3 cell generation ([1]; IMDM+BIT serum-free medium, 7 days of culture): 7.5 µg/mL
- generation of CD7+CD34+ cells ([2]; DL4 alone): can generate CD7+CD34+ cells
- generation of later stage progenitor T cells from CD34+ HSPCs ([2]; 9 or 14 days, matrix proteins in conjunction with DL4): insufficient to drive these progenitor cells to later stages of T cell development
- binding to DN vs. DP thymocytes [3]: binding double negative (DN; CD4− CD8−) and not double positive (DP, CD4+CD8+) thymocytes

From patent US12076342B2, “Method for generating progenitor t cells from stem and/or progenitor cells and use of same” (THE GOVERNING COUNCIL OF THE UNIVERSITY OF TORONTO, priority 2016, dated 2024)
